Source: paper PMC9167041 (Computational and Structural Biotechnology Journal, 2022)

Biological target: SARS-CoV-2 M^pro (Severe acute respiratory syndrome coronavirus 2, UniProt P0DTD1)
Assay: SARS-CoV-2 Mpro in vitro enzyme-based assay
Format: biochemical
Conditions: compound at 10 μM

C=C1CCC2[C@](C)(COC(C)=O)[C@H](OC(C)=O)CC[C@@]2(C)[C@@H]1C[C@H](SC(=S)N1CCN(C(=O)C2COc3ccccc3O2)CC1)C1=CCOC1=O (stereo partly shown) [3j]
inhibition of SARS-CoV-2 M^pro: rather low inhibitory effect
